These results are taken from patent US6495522B1, “Substituted alpha-hydroxy acid caspase inhibitors and the use thereof” (Cytovia, Inc., priority 1999, dated 2002).

One test relates to HeLa cells. Put plainly: Cell protection: HeLa cell death induced by TNF-α. It counts as cell-based. As to conditions: TNF-α (25 ng/ml) and cycloheximide (30 μg/ml), 24 hours, calcein AM, read-out: EC50 for cytoprotection. Here is the method: Cell protection activity was determined by examining the ability of S-2-methyl-1-(carbonyl-Asp-CH2F)propyl N-phenylcarbamate to block HeLa cell death induced by TNF-α. In this assay, 25,000 HeLa cells are seeded in 96-well plates 24 hours prior to testing. On the assay day, the cells are pre-incubated for 30 minutes with the test compound at eight different concentrations and the cells are then challenged with TNF-α (25 ng/ml) and cycloheximide (30 μg/ml) and incubated further for 24 hours. The dead cells are then removed by two PBS washes and 100 μL of a cell-mass indicator solution (calcein AM, final concentration 8 μM) is added. After a 20 minute incubation, the fluorescent signal is measured at 485/510 nm and the data are expressed as percent control, using control cultures treated only with cycloheximide.

The next test addresses T1, rcaspase 3 (Homo sapiens, UniProt P42574).
T1 construct: purchased PharMingen (a Becton division company, San Diego, Calif.)
T1 sequence (P42574 29-175 limits assumed): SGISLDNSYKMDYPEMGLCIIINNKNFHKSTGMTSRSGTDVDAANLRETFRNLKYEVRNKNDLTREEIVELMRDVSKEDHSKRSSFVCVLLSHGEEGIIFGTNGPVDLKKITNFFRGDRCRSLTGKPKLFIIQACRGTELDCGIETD
T1 sequence (P42574 176-277 limits assumed): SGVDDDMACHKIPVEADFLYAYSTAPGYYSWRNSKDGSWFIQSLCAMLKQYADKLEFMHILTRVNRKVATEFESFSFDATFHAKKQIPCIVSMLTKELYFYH
Put plainly: Fluorometric caspase-3 enzyme assay. It counts as biochemical. Particulars: 2 ng rcaspase 3, 10 μM Ac-DEVD-AMC, 37° C., 30 minutes; read-out: IC50 as an inhibitor of caspase-3. Here is the method: The activity of S-2-methyl-1-(carbonyl-Asp-CH2F)propyl N-phenylcarbamate as an inhibitor of caspase-3 was measured in a fluorometric enzyme assay. Enzyme activity was measured using synthetic peptide substrates attached to a fluorogenic leaving group. Cleavage of the synthetic substrate by the enzyme results in a fluorescent signal which is read in a spectrofluorometer or in a fluorometric microtiter plate reader.
12 concentrations of the test compound ranging from 30 pM to 10 μM were tested in the enzyme assay. The enzyme reaction was conducted in the presence of 2 ng rcaspase 3 (purchased from PharMingen, a Becton division company, San Diego, Calif.), various concentrations of test compound, 10 μM caspase 3 substrate Ac-DEVD-AMC (SEQ ID NO:1, purchased from Quality Controlled Biochemicals, Inc. Hopkinton, Mass.) and caspase buffer (20 mM PIPES, 100 mM NaCl, 10 mM DTT, 1 mM EDTA, 0.1% CHAPS and 10% sucrose, pH 7.2) in a total volume of 100 μL. The enzyme reaction was carried out in a 96-well plate and incubated at 37° C. for 30 minutes. The plate was then read with a fluorescence plate reader (EG&G WALLAG 1420-002) using excitation filter at 355 nm/emission filter at 460 nm.

Consider `CC(C)[C@H](OC(=O)Nc1ccccc1)C(=O)N[C@@H](CC(=O)O)C(=O)CF` [Example 3, S-2-Methyl-1-(carbonyl-Asp-CH2F)propyl N-Phenylcarbamate], for which the EC50 in the test with HeLa cells is 150 nM. The IC50 at rcaspase 3 was 17 nM.

Broadly, the EC50 is the concentration needed to bring the measured effect to its halfway point. The term IC50 denotes the concentration at which inhibition is half-maximal.
